Measurements as given in US10435388B2, “Selective inhibitors of clinically important mutants of the EGFR tyrosine kinase” (CS PHARMATECH LIMITED, priority 2016, dated 2019).
Several values for one entry are separate records, joined by “and”; a condition that tells them apart may be missing. Equal values may be shown once.

Key:
Assay type in all cases: biochemical
[1] = target: EGFR_d746-750 (Homo sapiens, UniProt P00533, DEL746-750); assay: Enzyme assay, IC50 for single mutant EGFR_d746-750 (Caliper); settings: enzyme phosphorylation assay
Sequence of EGFR_d746-750 (P00533 with tags, fused parts or gaps DEL746-750): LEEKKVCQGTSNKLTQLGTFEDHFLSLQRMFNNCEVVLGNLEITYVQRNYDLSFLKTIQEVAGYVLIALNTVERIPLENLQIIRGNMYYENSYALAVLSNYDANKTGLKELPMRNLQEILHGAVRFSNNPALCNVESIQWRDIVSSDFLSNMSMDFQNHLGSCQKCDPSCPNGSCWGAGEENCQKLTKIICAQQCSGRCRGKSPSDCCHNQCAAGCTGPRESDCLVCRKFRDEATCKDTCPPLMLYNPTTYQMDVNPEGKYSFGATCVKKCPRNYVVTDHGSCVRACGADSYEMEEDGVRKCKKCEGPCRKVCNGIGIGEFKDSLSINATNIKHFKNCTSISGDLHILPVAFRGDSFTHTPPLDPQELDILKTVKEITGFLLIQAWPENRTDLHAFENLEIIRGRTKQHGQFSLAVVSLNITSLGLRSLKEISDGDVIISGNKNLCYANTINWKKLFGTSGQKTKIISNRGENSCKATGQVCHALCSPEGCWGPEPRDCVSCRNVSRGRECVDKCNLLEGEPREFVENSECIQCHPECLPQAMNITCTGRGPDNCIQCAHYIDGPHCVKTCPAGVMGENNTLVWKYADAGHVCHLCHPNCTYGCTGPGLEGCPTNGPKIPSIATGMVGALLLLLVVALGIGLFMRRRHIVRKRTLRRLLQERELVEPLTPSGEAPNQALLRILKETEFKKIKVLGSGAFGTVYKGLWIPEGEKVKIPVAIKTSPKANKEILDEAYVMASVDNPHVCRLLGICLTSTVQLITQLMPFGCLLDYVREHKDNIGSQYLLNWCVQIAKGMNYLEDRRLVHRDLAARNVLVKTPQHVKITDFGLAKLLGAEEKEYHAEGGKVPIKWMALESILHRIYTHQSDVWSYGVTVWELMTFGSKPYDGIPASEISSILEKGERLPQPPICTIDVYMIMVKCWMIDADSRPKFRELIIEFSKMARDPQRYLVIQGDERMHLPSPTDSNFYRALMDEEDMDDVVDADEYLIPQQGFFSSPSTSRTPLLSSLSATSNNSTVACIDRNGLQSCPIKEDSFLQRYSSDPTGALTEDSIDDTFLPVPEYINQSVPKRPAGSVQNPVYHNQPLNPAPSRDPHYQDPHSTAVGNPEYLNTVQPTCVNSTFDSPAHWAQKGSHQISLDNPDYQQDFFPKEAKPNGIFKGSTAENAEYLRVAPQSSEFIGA

[2] = target: T1, Wt EGFR (Homo sapiens, UniProt P00533); assay: Enzyme assay, IC50 for wt EGFR (Caliper); settings: enzyme phosphorylation assay; read-out: EGFR_WT IC50
T1 construct: isolated from A431 human epidermoid carcinoma cells which overexpress EGF receptor; endogenous in cells; host or cells: A431 human epidermoid carcinoma cells (receptor purified on wheat germ agglutinin sepharose)
T1 sequence (P00533 25-1210): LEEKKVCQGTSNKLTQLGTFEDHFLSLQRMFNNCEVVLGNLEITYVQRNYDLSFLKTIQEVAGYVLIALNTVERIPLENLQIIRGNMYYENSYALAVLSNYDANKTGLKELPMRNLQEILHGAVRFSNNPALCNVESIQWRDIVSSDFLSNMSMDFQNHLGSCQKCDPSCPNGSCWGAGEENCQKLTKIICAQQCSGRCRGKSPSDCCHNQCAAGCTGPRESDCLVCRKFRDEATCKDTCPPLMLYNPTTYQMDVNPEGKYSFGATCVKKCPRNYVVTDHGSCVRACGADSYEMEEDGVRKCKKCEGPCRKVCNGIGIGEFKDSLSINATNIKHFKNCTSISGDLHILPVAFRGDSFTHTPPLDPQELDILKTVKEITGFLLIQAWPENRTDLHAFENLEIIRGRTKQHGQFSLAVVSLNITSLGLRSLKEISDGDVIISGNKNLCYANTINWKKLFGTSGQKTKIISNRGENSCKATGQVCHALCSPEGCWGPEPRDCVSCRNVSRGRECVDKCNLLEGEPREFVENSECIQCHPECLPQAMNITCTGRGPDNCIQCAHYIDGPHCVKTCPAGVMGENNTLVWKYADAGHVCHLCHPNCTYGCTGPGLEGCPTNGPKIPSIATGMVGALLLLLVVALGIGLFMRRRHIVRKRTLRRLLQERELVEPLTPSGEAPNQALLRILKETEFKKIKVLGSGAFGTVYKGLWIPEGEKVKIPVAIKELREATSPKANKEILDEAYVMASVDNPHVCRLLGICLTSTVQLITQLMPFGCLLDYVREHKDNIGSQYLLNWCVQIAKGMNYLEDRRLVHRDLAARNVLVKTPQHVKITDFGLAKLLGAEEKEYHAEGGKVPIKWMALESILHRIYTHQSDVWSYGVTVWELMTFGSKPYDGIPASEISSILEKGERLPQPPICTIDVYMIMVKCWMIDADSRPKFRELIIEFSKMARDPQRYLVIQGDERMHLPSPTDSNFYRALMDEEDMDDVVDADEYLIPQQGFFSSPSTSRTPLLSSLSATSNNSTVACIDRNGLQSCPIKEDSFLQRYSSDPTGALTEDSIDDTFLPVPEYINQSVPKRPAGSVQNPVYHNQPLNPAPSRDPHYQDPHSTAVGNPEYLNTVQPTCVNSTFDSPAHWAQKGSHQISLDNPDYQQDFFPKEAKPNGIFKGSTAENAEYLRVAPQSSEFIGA

[3] = target: T2, INSR (Homo sapiens, UniProt P06213); assay: INSR inhibition assay (Caliper EZ Reader); settings: enzyme assay
T2 construct: purchased CARNA BIOSCIENCE 08-142
T2 sequence (P06213 989-1382 limits assumed): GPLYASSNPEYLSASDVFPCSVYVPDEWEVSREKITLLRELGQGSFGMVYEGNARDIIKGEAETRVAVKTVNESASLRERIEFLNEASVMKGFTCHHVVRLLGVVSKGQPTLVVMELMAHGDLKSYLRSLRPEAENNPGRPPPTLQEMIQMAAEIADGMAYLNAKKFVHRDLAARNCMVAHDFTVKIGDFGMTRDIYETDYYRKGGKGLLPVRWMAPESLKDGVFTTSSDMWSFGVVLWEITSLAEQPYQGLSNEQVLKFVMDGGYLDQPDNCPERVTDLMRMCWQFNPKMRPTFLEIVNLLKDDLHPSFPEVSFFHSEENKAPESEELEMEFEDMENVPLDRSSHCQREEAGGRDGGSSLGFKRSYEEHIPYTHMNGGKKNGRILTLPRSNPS

## C=CC(=O)Nc1cc(Nc2nccc(-c3c[nH]c4ccccc34)n2)c(OC)cc1N(C)CCN(C)C [AZD-5104]
[1]
  IC50: 1.1 nM
[2]
  IC50: 1.6 nM
[3]
  IC50: 49.5 nM and 72.2 nM
